From EP0417165B1, “POLYPEPTIDE COMPOUNDS HAVING GROWTH HORMONE RELEASING ACTIVITY” (POLYGEN HOLDING CORPORATION, priority 1988, dated 1994)
Non-standard residues stand in square brackets, D forms with d. Residues, ends and D or L forms follow the SMILES beside them.

System: GH Release
Assay: In vivo GH release in pentobarbital anesthetized rats (serum GH by RIA)
Parameters: species or system Sprague-Pawley rats
Settings: sacrificed 10 minutes after injection, mean ± SEM, six rats
Description: Immature female Sprague-Pawley rats were obtained from the Charles River Laboratories (Wilmington, MA). After arrival they were housed at 25° C with a 14:10 hr light:dark cycle. Water and Purina rat chow were available ad libitum. Pups were kept with their mothers until 21 days of age.
Normal saline with 0.1% gelatin was the vehicle for intravenous (i.v.) injections of the peptides. The anesthetized rats, weighing 55-65 grams, were injected i.v. with the quantity of growth hormone releasing compounds indicated in Table 3. Injection was made as a 0.1 mL solution into the jugular vein.
All animals were sacrificed by guillotine 10 minutes after the final test injection (see Table 3). Trunk blood for the determination of blood GH levels was collected following decapitation. After allowing the blood to clot, it was centrifuged and the serum was separated from the clot. Serum was kept frozen until the day of sampling for radioimmunoassay (RIA) determination of growth hormone levels according to the following procedure, as developed by the National Institute of Arthritis, Diabetes and Digestive and Kidney Diseases (NIADDK).
Reagents are generally added to the RIA analysis tubes at a single sitting, at refrigerator temperature (about 4°C) in the following sequence: • (a) buffer, • (b) "cold" (i.e., non-radioactive) standard or unknown serum sample to be analyzed, • (c) radio-iodinated growth hormone antigen, and • (d) growth hormone antiserum. Reagent addition is generally carried out so that there is achieved a final RIA tube dilution of about 1:30,000 (antiserum to total liquid volume; vol:vol).
The mixed reagents are then typically incubated at room temperature (about 25°C) for about 24 hours prior to addition of a second antibody (e.g., goat or rabbit anti-monkey gamma globulin serum) which binds to and causes precipitation of the complexed growth hormone antiserum. Precipitated contents of the RIA tubes are then analyzed for the number of counts in a specified period of time in a gamma scintillation counter. A standard curve is prepared by plotting number of radioactive counts versus growth hormone (GH) level. GH levels of unknowns are then determined by reference to the standard curve.
Serum GH was measured by RIA with reagents provided by the National Hormone and Pituitary Program.
Serum levels in Table 3 are recorded in ng/mL in terms of the rat GH standard of 0.61 International Units/mg (IU/mg). Data is recorded as the mean +/-standard error of the mean (SEM). Statistical analysis was performed with Student's t-test. In Table 3 the results shown are the average of studies with six rats.

[1] = Total Dose 0.3 µg i.v., 26 day old female rats, study with Control GH 142±43
[2] = Total Dose 0.3 µg i.v., 26 day old female rats, study with Control GH 208±47
[3] = Total Dose 1.0 µg i.v., 26 day old female rats, study with Control GH 142±43
[4] = Total Dose 1.0 µg i.v., 26 day old female rats, study with Control GH 208±47
[5] = Total Dose 1.0 µg i.v., 29 day old female rats, study with Control GH 108±17
[6] = Total Dose 3.0 µg i.v., 26 day old female rats, study with Control GH 142±43
[7] = Total Dose 3.0 µg i.v., 26 day old female rats, study with Control GH 208±47
[8] = Total Dose 3.0 µg i.v., 29 day old female rats, study with Control GH 108±17

| Structure (SMILES) | GH Released by Compound in Column A [1] | GH Released by Compound in Column A [2] | GH Released by Compound in Column A [3] | GH Released by Compound in Column A [4] | GH Released by Compound in Column A [5] | GH Released by Compound in Column A [6] | GH Released by Compound in Column A [7] | GH Released by Compound in Column A [8] | GH Released by Compound in Column A (Total Dose 10.0 µg i.v., 26 day old female rats, study with Control GH 142±43) | GH Released by Compound in Column A (Total Dose 10.0 µg i.v., 29 day old female rats, study with Control GH 108±17) | GH Released by Compound in Column A (Total Dose 30.0 µg i.v., 26 day old female rats, study with Control GH 142±43) | GH Released by Compound in Column A (Total Dose 0.3 µg i.v., 26 day old female rats, study with Control GH 151±16) | GH Released by Compound in Column A (Total Dose 1.0 µg i.v., 26 day old female rats, study with Control GH 151±16) | GH Released by Compound in Column A (Total Dose 3.0 µg i.v., 26 day old female rats, study with Control GH 111±25) | GH Released by Compound in Column A (Total Dose 3.0 µg i.v., 26 day old female rats, study with Control GH 151±16) | GH Released by Compound in Column A (Total Dose 0.3 µg i.v., 29 day old female rats, study with Control GH 108±17) |
| --- | --- | --- | --- | --- | --- | --- | --- | --- | --- | --- | --- | --- | --- | --- | --- | --- |
| C[C@H](N)C(=O)N[C@H](Cc1c[nH]c2ccccc12)C(=O)N[C@@H](C)C(=O)N[C@@H](Cc1c[nH]c2ccccc12)C(=O)N[C@H](Cc1ccccc1)C(=O)N[C@@H](CCCCN)C(N)=O [Ala-DTrp-Ala-Trp-DPhe-Lys-NH₂] (H-A[dW]AW[dF]K-NH2) | 303 ± 41 ng/mL | 265 ± 96 ng/mL | 729 ± 115 ng/mL | 754 ± 164 ng/mL | 745 ± 68 ng/mL | 1164 ± 215 ng/mL | 1449 ± 238 ng/mL | 1673 ± 352 ng/mL | 2353 ± 149 ng/mL | 2388 ± 269 ng/mL | 2484 ± 110 ng/mL |  |  |  |  |  |
| C[C@H](NC(=O)[C@@H](N)Cc1c[nH]cn1)C(=O)N[C@H](Cc1c[nH]c2ccccc12)C(=O)N[C@@H](C)C(=O)N[C@@H](Cc1c[nH]c2ccccc12)C(=O)N[C@H](Cc1ccccc1)C(=O)N[C@@H](CCCCN)C(N)=O [His-Ala-DTrp-Ala-Trp-DPhe-Lys-NH₂] (H-HA[dW]AW[dF]K-NH2) |  |  |  |  |  |  |  |  |  |  |  | 261 ± 32 ng/mL | 830 ± 103 ng/mL | 2588 ± 341 ng/mL | 2365 ± 478 ng/mL |  |
| C[C@H](NC(=O)[C@@H](Cc1c[nH]c2ccccc12)NC(=O)[C@@H](N)Cc1c[nH]cn1)C(=O)N[C@@H](Cc1c[nH]c2ccccc12)C(=O)N[C@H](Cc1ccccc1)C(=O)N[C@@H](CCCCN)C(N)=O [His-DTrp-Ala-Trp-DPhe-Lys-NH₂] (H-H[dW]AW[dF]K-NH2) | 533 ± 77 ng/mL | 660 ± 128 ng/mL | 1656 ± 213 ng/mL | 1669 ± 257 ng/mL | 2614 ± 349 ng/mL | 2653 ± 378 ng/mL | 3078 ± 629 ng/mL | 3215 ± 547 ng/mL |  |  |  |  |  |  |  | 764 ± 62 ng/mL |
